This note sets out measurements from PubChem BioAssay (NCI).

The structures appear in SMILES notation.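 Protocol summary: plate cells (96-well), add compound at 5 concentrations, incubate 48 h, interpolate endpoints linearly. Definition used: TGI = concentration required for complete inhibition of growth.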 Some results are limits rather than exact numbers.

Test systems include U251 CNS; SF-268 CNS; DU-145 prostate; NCI-H226 lung; OVCAR-3 ovarian; MOLT-4 leukemia; MDA-MB-435; SK-OV-3 ovarian; HT29 colon; IGROV1 ovarian; SF-539 CNS; TK-10 renal; SR leukemia; HOP-62 NSCLC; NCI/ADR-RES ovarian; OVCAR-5 ovarian; OVCAR-4 ovarian; SK-MEL-28 melanoma; RXF 393 renal; A498 renal.
Assay in all cases: NCI tumour cell line growth inhibition, 48 h

Regarding `COc1ccc(/C=C2\CCc3cc(OC)c(OC)cc3C2=O)cc1`, the TGI with U251 CNS, in the assay on SF-268 CNS, with DU-145 prostate, in the assay on NCI-H226 lung, in the assay on OVCAR-3 ovarian and with MOLT-4 leukemia was above 10 µM each time. Also, the TGI in the assay on MDA-MB-435, with SK-OV-3 ovarian, in the assay with HT29 colon, in the assay on IGROV1 ovarian, with SF-539 CNS and in the assay with TK-10 renal was above 10 µM in each case. Also, the TGI in the assay with SR leukemia, in the assay with HOP-62 NSCLC, in the assay on NCI/ADR-RES ovarian, in the assay with OVCAR-5 ovarian, with OVCAR-4 ovarian and in the assay on SK-MEL-28 melanoma was above 10 µM in each case. Besides, in the assay with RXF 393 renal, the TGI was above 10 µM.
As for `COCOc1c(C(OCOC)c2cnc(Sc3ccccc3)n2C)ccc(OC)c1OC` (stereo unspecified), the TGI with U251 CNS, in the assay on SF-268 CNS, in the assay on DU-145 prostate, with NCI-H226 lung, with OVCAR-3 ovarian and with MOLT-4 leukemia was above 100 µM each time. Besides, the TGI in the assay on MDA-MB-435, with SK-OV-3 ovarian, in the assay on HT29 colon, in the assay with IGROV1 ovarian, with SF-539 CNS and in the assay with TK-10 renal was above 100 µM each time. Also, the TGI in the assay with SR leukemia, with HOP-62 NSCLC, in the assay on NCI/ADR-RES ovarian, in the assay on OVCAR-5 ovarian, with OVCAR-4 ovarian and with SK-MEL-28 melanoma was above 100 µM each time. Also, the TGI in the assay with RXF 393 renal was above 100 µM.
With `NNc1ncc2c(n1)-c1ccccc1OC2`, the TGI in the assay on U251 CNS, in the assay on SF-268 CNS, in the assay with DU-145 prostate, in the assay with NCI-H226 lung, in the assay on OVCAR-3 ovarian and in the assay with MOLT-4 leukemia was above 100 µM throughout. Further, the TGI with MDA-MB-435, in the assay on SK-OV-3 ovarian, with HT29 colon, with IGROV1 ovarian, in the assay on SF-539 CNS and with TK-10 renal was above 100 µM in each case. Moreover, the TGI with SR leukemia, in the assay on HOP-62 NSCLC, in the assay with NCI/ADR-RES ovarian, in the assay on OVCAR-5 ovarian, with OVCAR-4 ovarian and in the assay on SK-MEL-28 melanoma was above 100 µM in each case. In the assay on RXF 393 renal, this compound gave a TGI above 100 µM.
`COC(=O)c1ccc(/C=C2\Oc3cc(O)ccc3C2=O)cc1`: the TGI with U251 CNS, with SF-268 CNS, in the assay on DU-145 prostate, with NCI-H226 lung, in the assay on OVCAR-3 ovarian and with MOLT-4 leukemia was above 100 µM in each case. The TGI with MDA-MB-435, with SK-OV-3 ovarian, in the assay on IGROV1 ovarian, in the assay on SF-539 CNS, with TK-10 renal and with SR leukemia was above 100 µM each time. Moreover, the TGI is above 100 µM in the assay on HOP-62 NSCLC; above 100 µM in the assay with NCI/ADR-RES ovarian; above 100 µM in the assay on OVCAR-4 ovarian; above 100 µM with SK-MEL-28 melanoma; 77.3 µM with RXF 393 renal.
With `O=c1oc2c/c(=C\c3ccccn3)c(=O)c3cccc1c3-2`, the TGI with SF-268 CNS is above 100 µM; with DU-145 prostate it was above 100 µM; in the assay on NCI-H226 lung it was above 100 µM; in the assay on OVCAR-3 ovarian, 39.4 µM; in the assay with MOLT-4 leukemia, above 100 µM; in the assay with MDA-MB-435, above 100 µM. The TGI in the assay with SK-OV-3 ovarian was above 100 µM; in the assay on HT29 colon it was above 100 µM; with IGROV1 ovarian it was above 100 µM; in the assay on SF-539 CNS it was 57.4 µM; in the assay with TK-10 renal it was above 100 µM; in the assay on SR leukemia, above 100 µM. The TGI in the assay with HOP-62 NSCLC was 39.2 µM; in the assay on NCI/ADR-RES ovarian, above 100 µM; with OVCAR-5 ovarian it was above 100 µM; with OVCAR-4 ovarian it was above 100 µM; in the assay with SK-MEL-28 melanoma it was above 100 µM; in the assay with RXF 393 renal it was 37.7 µM.
As for `CSc1ccc(/C=C2\N=C(c3ccccc3)N(/N=C3\C(=O)Nc4ccccc43)C2=O)cc1`, the TGI in the assay with U251 CNS, in the assay with SF-268 CNS, in the assay with DU-145 prostate, with A498 renal, in the assay on OVCAR-3 ovarian and with MOLT-4 leukemia was above 100 µM each time. In addition, the TGI in the assay with MDA-MB-435, with SK-OV-3 ovarian, with HT29 colon, in the assay on IGROV1 ovarian, in the assay on SF-539 CNS and in the assay with TK-10 renal was above 100 µM in each case. Moreover, the TGI in the assay on SR leukemia, in the assay on HOP-62 NSCLC, with NCI/ADR-RES ovarian, in the assay on OVCAR-5 ovarian, in the assay with OVCAR-4 ovarian and with SK-MEL-28 melanoma was above 100 µM each time. In addition, the TGI in the assay with RXF 393 renal is above 100 µM.
